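Values below derive from 48-hour exposures of cells grown in 96-well plates, with endpoints linearly interpolated between the two concentrations bracketing the appropriate inhibition level. GI50: concentration for 50% inhibition of growth. TGI: total growth inhibition.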 Where a SMILES comes first, the peptide text is derived from it. [ ]: non-standard residue; d: D form.
Assays:
Assay in all cases: growth of human tumour cells (NCI), 48 h
786-0 renal = system: 786-0 renal
CAKI-1 renal = system: CAKI-1 renal
ACHN renal = system: ACHN renal
UO-31 renal = system: UO-31 renal
HOP-62 NSCLC = system: HOP-62 NSCLC
OVCAR-3 ovarian = system: OVCAR-3 ovarian
LOX IMVI melanoma = system: LOX IMVI melanoma
HCT-15 colon = system: HCT-15 colon
CCRF-CEM leukemia = system: CCRF-CEM leukemia
HCT-116 colon = system: HCT-116 colon

Row | SMILES | TGI (786-0 renal) [µM] | TGI (CAKI-1 renal) [µM] | TGI (ACHN renal) [µM] | TGI (UO-31 renal) [µM] | TGI (HOP-62 NSCLC) [µM] | TGI (OVCAR-3 ovarian) [µM] | TGI (LOX IMVI melanoma) [µM] | TGI (HCT-15 colon) [µM] | TGI (CCRF-CEM leukemia) [µM] | TGI (HCT-116 colon) [µM] | GI50 (HCT-15 colon) [nM] | GI50 (CAKI-1 renal) [nM] | GI50 (ACHN renal) [nM] | GI50 (UO-31 renal) [nM] | GI50 (OVCAR-3 ovarian) [nM] | GI50 (LOX IMVI melanoma) [nM] | GI50 (CCRF-CEM leukemia) [nM] | GI50 (HCT-116 colon) [µM] | GI50 (HOP-62 NSCLC) [µM]
1 | Cc1cc(C)[n+]2c(c1)C=CC2 | > 100 | > 100 | > 100 | > 100 | > 100 | 38.6 | > 100 | – | – | – | – | – | – | – | – | – | – | – | –
2 | O=S(=O)(O)c1ccc(O)c(N=Nc2c(O)ccc3ccccc23)c1 | > 100 | > 100 | – | > 100 | > 100 | > 100 | > 100 | > 100 | 86.9 | > 100 | – | – | – | – | – | – | – | – | –
3 | N#Cc1sc2c(c1OC(=O)c1ccco1)c(=O)n(-c1ccccc1)c(=S)n2-c1ccccc1 | > 100 | > 100 | – | 44.1 | > 100 | 75.5 | 45.6 | 52.4 | > 10 | 41.6 | – | – | – | – | – | – | – | – | –
4 | CC(C)(C)OC(=O)N1C(=O)C2CCCC21 (centres undefined) | > 100 | – | > 100 | – | > 100 | > 100 | > 100 | > 100 | > 100 | > 100 | – | – | – | – | – | – | – | – | –
5 | C=C1c2c(n(S(=O)(=O)c3ccccc3)c3ccccc23)[C@@]2(C(=O)OC)CC3C=CC2N1C3 | > 100 | > 100 | > 100 | – | > 100 | > 100 | > 100 | > 100 | > 100 | > 100 | – | – | – | – | – | – | – | – | –
6 | COc1cc2nc(-c3cccs3)nc(N3CCN(c4ccccc4)CC3)c2cc1OC | > 100 | > 100 | > 100 | > 100 | > 100 | > 100 | > 100 | > 100 | – | > 100 | – | – | – | – | – | – | – | – | –
7 | O=C1Sc2ccccc2C(=O)N2CCSC12 (centres undefined) | – | – | – | > 100 | > 100 | > 100 | > 100 | > 100 | > 100 | > 100 | – | – | – | – | – | – | – | – | –
8 | O=C(CCCCCNC(=O)c1ccc(Cl)cc1)NO | 39 | 21.1 | 41.6 | 37.8 | – | 13 | 17 | > 100 | > 100 | 10.7 | – | – | – | – | – | – | – | – | –
9 | CCOC(=O)Cc1[nH]c(C(=O)c2ccccc2)cc1C(=O)c1ccccc1 | > 10 | – | > 10 | > 10 | 51.7 | > 100 | > 100 | > 100 | > 10 | 33.4 | – | – | – | – | – | – | – | – | –
10 | CC(C)C[C@H](NC(=O)[C@H](CC(C)C)NC(=O)[C@@H](Cc1c[nH]c2ccccc12)NC(=O)[C@H](Cc1ccccc1)NC(=O)[C@@H](Cc1c[nH]c2ccccc12)NC(=O)[C@H](CCC(N)=O)NC(=O)[C@@H](CCC(N)=O)NC(=O)[C@@H]1CCCN1C(=O)[C@@H](CCCCN)NC(=O)[C@H]1CCCN1C(=O)[C@H](N)CCCN=C(N)N)C(N)=O (H-[dR][dP][dK]P[dQ]Q[dW]F[dW]LL-NH2) | – | – | – | > 100 | > 100 | > 100 | > 100 | > 100 | > 100 | > 100 | – | – | – | – | – | – | – | – | –
11 | CC1CN(c2cc3c(cc2F)c(=O)c(C(=O)O)cn3-c2ccc(N3CCN(C)CC3)cn2)CC(C)N1 (centres undefined) | > 100 | > 100 | – | > 100 | > 100 | > 100 | – | > 100 | > 100 | > 100 | – | – | – | – | – | – | – | – | –
12 | Cc1ccc2sc3c(NCCCN)nc4ccccc4c3c(=O)c2c1 | – | 3.25 | 3.09 | 2.98 | – | 3.32 | 3.08 | 3.15 | 5.61 | 3.42 | 1610 | 1670 | 1710 | 1510 | 1820 | 1660 | 2320 | 1.8 | –
13 | O=C1CCC2(O)c3ccccc3C2Cc2ccccc21 (centres undefined) | > 100 | – | > 100 | – | > 100 | > 100 | > 100 | – | > 100 | > 100 | – | – | – | – | – | – | – | – | –
14 | COc1cc(C2c3cccc4cccc(c34)C3CCC(=O)N32)cc(OC)c1O (centres undefined) | > 50 | – | > 50 | > 50 | > 50 | > 50 | – | > 50 | > 50 | > 50 | – | – | – | – | – | – | – | – | –
15 | [N-]=[N+]=Nc1cc(=O)[nH]c2ccccc12 | > 100 | > 100 | > 100 | > 100 | > 100 | > 100 | – | – | > 100 | > 100 | – | – | – | – | – | – | – | – | –
16 | Cc1cc(N(CCC#N)CCC#N)ccc1/C(N=Nc1ccc(C(=O)O)cc1)=N\NC(=O)c1ccccc1 | > 100 | > 100 | > 100 | > 100 | > 100 | – | – | > 100 | > 100 | > 100 | – | – | – | – | – | – | – | – | –
17 | Cc1nc(N)c(N2CCN(S(=O)(=O)N(Cc3ccccc3)Cc3ccccc3)CC2)c(=O)[nH]1 | > 100 | – | 85.1 | > 100 | 83.5 | 73.8 | > 100 | > 100 | > 100 | > 100 | – | – | – | – | – | – | – | – | –
18 | COC(=O)/C=C1\C(CO[Si](C)(C)C(C)(C)C)OC(n2cc(C)c(=O)n(C)c2=O)C1O[Si](C)(C)C(C)(C)C (centres undefined) | > 100 | – | > 100 | > 100 | > 100 | > 100 | > 100 | > 100 | > 100 | > 100 | – | – | – | – | – | – | – | – | –
19 | CCOP(=O)(OCC)/C(=C/n1c(=S)[nH]c2ccccc21)C(=O)OC | > 100 | > 100 | > 100 | > 100 | > 100 | – | > 100 | > 52.2 | > 100 | > 100 | – | – | – | > 100000 | – | – | – | – | –
20 | CC1(C)CC(=O)c2c(N)n[nH]c2C1 | > 100 | > 100 | > 100 | > 100 | > 100 | > 100 | > 100 | – | > 100 | > 100 | – | – | – | – | – | – | – | – | –
21 | Oc1ccc(-c2nc3cc(C(F)(F)F)ccc3s2)cc1 | – | 29.1 | 27.6 | 26.8 | – | 28.3 | 26.6 | 22.1 | 27.8 | 27.6 | – | – | – | – | – | – | – | – | –
22 | COc1cc2c3c(n(C)c(=O)c2cc1OC)-c1cc2c(cc1/C3=C\CCCCl)OCO2 | 40 | > 100 | > 100 | > 100 | 62.8 | – | > 100 | > 100 | > 100 | > 100 | – | – | – | – | – | – | – | 40.4 | 17.5
